Target: Probable G-protein coupled receptor 34 (Homo sapiens, UniProt Q9UPC5)
Assay: Antagonist activity against human lung GPR34 expressed in CHO cells co-expressing Galpha116 assessed as inhibition of lysophosphatidyl serine-induced increase in intracellular calcium level pre-incubated before lysophosphatidyl serine addition and measured after 180 secs by Fluo 3-AM dye based fluorescent assay
Type: functional, cell-based

Probable G-protein coupled receptor 34, sequence (Q9UPC5 whole entry): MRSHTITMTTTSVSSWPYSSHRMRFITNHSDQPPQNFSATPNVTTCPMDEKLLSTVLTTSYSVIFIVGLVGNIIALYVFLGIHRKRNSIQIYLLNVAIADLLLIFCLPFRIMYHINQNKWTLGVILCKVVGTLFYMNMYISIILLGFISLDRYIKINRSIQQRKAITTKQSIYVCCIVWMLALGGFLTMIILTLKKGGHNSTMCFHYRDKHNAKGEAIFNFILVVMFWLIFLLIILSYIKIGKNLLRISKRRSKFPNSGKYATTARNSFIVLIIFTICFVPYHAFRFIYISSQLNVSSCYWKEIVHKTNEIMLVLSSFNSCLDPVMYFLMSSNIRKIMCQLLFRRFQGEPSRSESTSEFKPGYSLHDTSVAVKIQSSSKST

Structure (SMILES) | IC50 [nM]
O=C(Cc1ccc(Oc2ccccc2)cc1)NC1(C(=O)O)Cc2ccc(-c3ccc(Cl)cc3)cc2C1 (centres undefined) | ≤ 1000
O=C(O)C1(NS(=O)(=O)Cc2ccc(F)cc2)Cc2ccc(-c3ccc(Cl)cc3)cc2C1 (centres undefined) | ≤ 1000
O=C(Cc1ccc(Oc2nc3ccccc3s2)cc1)NC1(C(=O)O)Cc2ccc(-c3ccc(Cl)cc3)cc2C1 (centres undefined) | ≤ 1000
O=C(O)CN(Cc1ccc(OCc2ccc(F)cc2)cc1)C(=O)c1cn2cc(-c3ccc(Cl)cc3)ccc2n1 | ≤ 1000
O=C(Cc1ccc(OCc2ccc(F)cc2)cc1)NC1(C(=O)O)Cc2ccc(-c3ccccc3Cl)cc2C1 (centres undefined) | ≤ 1000
O=C(NC(Cc1ccc(OCc2ccc(F)cc2)cc1)C(=O)O)c1cn2ccc(C#Cc3ccccc3)cc2n1 (centres undefined) | ≤ 1000
Nc1ccccc1COc1ccc(CC(=O)NC2(C(=O)O)Cc3ccc(-c4ccc(Cl)cc4)cc3C2)cc1 (centres undefined) | ≤ 1000
O=C(Cc1ccc(OC2Cc3ccccc3C2)cc1)NC1(C(=O)O)Cc2ccc(-c3ccc(Cl)cc3)cc2C1 (centres undefined) | ≤ 1000
O=C(NC(Cc1ccc(OCc2ccccc2)cc1)c1nnn[nH]1)c1cn2nc(-c3ccc(Cl)cc3)ccc2n1 (centres undefined) | ≤ 1000
O=C(NC(Cc1ccc(OCc2ccccc2)cc1)c1nnn[nH]1)c1cn2cc(-c3ccc(Cl)cc3)ccc2n1 (centres undefined) | ≤ 1000
O=C(Cc1ccc(OCc2ccc(F)cc2)cc1)NC1(C(=O)O)Cc2ccc(-c3ccc(Cl)s3)cc2C1 (centres undefined) | ≤ 1000
Nc1cccc(COc2ccc(CC(=O)NC3(C(=O)O)Cc4ccc(-c5ccc(Cl)cc5)cc4C3)cc2)c1 (centres undefined) | ≤ 1000
O=C(Cc1ccc(OCc2ccsc2)cc1)NC1(C(=O)O)Cc2ccc(-c3ccc(Cl)cc3)cc2C1 (centres undefined) | ≤ 1000
O=C(Cc1ccc(OCc2ccc(F)cc2)cc1)NC1(C(=O)O)Cc2ccc(-c3cccc(Cl)c3)cc2C1 (centres undefined) | ≤ 1000
O=C(Cc1ccc(OCc2ccc(F)cc2)cc1)NC1(C(=O)O)Cc2ccc(-c3ccc(Cl)cc3)cc2C1 (centres undefined) | ≤ 1000
O=C(NC(Cc1ccc(OCc2ccccc2)cc1)C(=O)O)c1cn2cc(CCc3ccccc3)ccc2n1 (centres undefined) | ≤ 1000

Now from value to compound:

IC50 [nM] | Structure (SMILES)
≤ 1000 | Cc1ccc(COc2ccc(CC(NC(=O)c3cc4ccc(-c5ccc(Cl)cc5)cc4o3)C(=O)O)cc2)cc1 (centres undefined)
≤ 1000 | O=C(NC(Cc1ccc(OCc2ccccc2F)cc1)C(=O)O)c1cn2cc(-c3ccc(Cl)cc3)ccc2n1 (centres undefined)
≤ 1000 | Cc1c(C(=O)N[C@@H](Cc2ccc(OCc3ccoc3)cc2)C(=O)O)oc2cc(-c3ccc(Cl)cc3)ccc12
≤ 1000 | O=C(NC(Cc1ccc(OCc2ccc(F)cc2)cc1)C(=O)O)c1nc2cc(-c3ccc(Cl)cc3)ccc2[nH]1 (centres undefined)
≤ 1000 | O=C(NC(Cc1ccc(OCc2cccc(F)c2)cc1)C(=O)O)c1cn2cc(-c3ccc(Cl)cc3)ccc2n1 (centres undefined)
≤ 1000 | O=C(N[C@@H](Cc1ccc(OCc2ccsc2)cc1)C(=O)O)c1cn2cc(-c3ccc(Cl)cc3)ccc2n1
≤ 1000 | Nc1c(C(=O)NC(Cc2ccc(OCc3ccccc3)cc2)C(=O)O)oc2ccc(-c3ccc(Cl)cc3)cc12 (centres undefined)
≤ 1000 | O=C(NC(Cc1ccc(OCc2ccc(F)cc2)cc1)C(=O)O)c1cn2cc(-c3ccc(Cl)cc3)ccc2n1 (centres undefined)
≤ 1000 | Cc1c(C(=O)N[C@@H](Cc2ccc(OCc3ccsc3)cc2)C(=O)O)oc2cc(-c3ccc(Cl)cc3)ccc12
≤ 1000 | Cc1c(C(=O)N[C@H](C(=O)O)c2ccc(OCc3ccccc3)cc2)oc2cc(-c3ccc(Cl)cc3)ccc12
≤ 1000 | Cc1c(C(=O)N[C@@H](Cc2ccc(OCc3ccccc3)cc2)C(=O)O)oc2cc(-c3ccc(Cl)cc3)ccc12
≤ 1000 | O=C(N[C@@H](Cc1ccc(OCc2ccccc2)cc1)C(=O)O)c1cn2ccc(-c3ccc(Cl)cc3)cc2n1
≤ 1000 | O=C(Cc1ccc(OCc2ccccc2)cc1)NC1(C(=O)O)Cc2ccc(-c3ccc(Cl)cc3)cc2C1 (centres undefined)

Reference: ChEMBL document CHEMBL3714719, “Regulating agent of GPR34 receptor function” (2010)
